# Measurements from patent US20100292231A1, “Indazole Compounds for Treating Inflammatory Disorders, Demyelinating Disorders and Cancers” (priority 2007, published 2010).
# Tests used:
# Format in all cases: cell-based
# MV-4-11 = experiment: MTS cellular proliferation assay; settings: Homo sapiens, MV4-11, 72 hour incubation, read-out: Growth inhibitory activity (in vivo EC50 nM)
# Excerpt: (§1) The viability of Flt3 expressing cells can be evaluated using a tetrazolium salt reduction cell-based assay. […] BaF3, both wild type and mutant, as well as transfected strains, MV4-11 and MOLM14 are well-characterized Flt3-dependent humanized or human cell lines which express active Flt3 receptors (see, Yee et al. Blood (2002)100 (8):2941-2949; Levis et al. (2002) 99(11): 3885-3891). These cell lines were used to determine the ability of the compounds provided herein to inhibit Flt3 in intact cells. In each case, and by methods known to those practiced in the art of cell culture, proliferation was measured after 72 hour incubation with the compounds provided herein using a standard MTS protocol (Promega Cat #5430 “Cell Titer 96 Aqueous Non-radioactive Cell Proliferation Assay”).
# (§2) In general, cells were plated at 10,000-20,000 cells per well in DMEM medium with 0.5% serum. The compound plate was set up by aliquoting into column 1 of a 96 well 300 ul polypropylene plate, the negative control (DMSO), aliquoting into column 12 the positive control and titrating the test compound in serial dilutions into columns 2-1 l. An aliquot from each well of the compound plate was transferred to the plated cells and then incubated @ […] in 5% CO2. [00538] MTS tetrazolium compound (Owen's reagent) was thawed in a H2O bath. 20 μl of MTS tetrazolium was added to each well of optical plate and the cells were incubated @ 37° C. in 5% CO2 for 2 hours. The absorbance measured at 490 nm using a microplate reader.
# BaF3-D835N = biological target: T1, BaF3-D835N (Homo sapiens, UniProt P36888, D835N, cells depend on it); experiment: MTS cellular proliferation assay; settings: 72 hour incubation, read-out: Growth inhibitory activity (in vivo EC50 nM)
# T1 sequence (P36888 1-993 D835N): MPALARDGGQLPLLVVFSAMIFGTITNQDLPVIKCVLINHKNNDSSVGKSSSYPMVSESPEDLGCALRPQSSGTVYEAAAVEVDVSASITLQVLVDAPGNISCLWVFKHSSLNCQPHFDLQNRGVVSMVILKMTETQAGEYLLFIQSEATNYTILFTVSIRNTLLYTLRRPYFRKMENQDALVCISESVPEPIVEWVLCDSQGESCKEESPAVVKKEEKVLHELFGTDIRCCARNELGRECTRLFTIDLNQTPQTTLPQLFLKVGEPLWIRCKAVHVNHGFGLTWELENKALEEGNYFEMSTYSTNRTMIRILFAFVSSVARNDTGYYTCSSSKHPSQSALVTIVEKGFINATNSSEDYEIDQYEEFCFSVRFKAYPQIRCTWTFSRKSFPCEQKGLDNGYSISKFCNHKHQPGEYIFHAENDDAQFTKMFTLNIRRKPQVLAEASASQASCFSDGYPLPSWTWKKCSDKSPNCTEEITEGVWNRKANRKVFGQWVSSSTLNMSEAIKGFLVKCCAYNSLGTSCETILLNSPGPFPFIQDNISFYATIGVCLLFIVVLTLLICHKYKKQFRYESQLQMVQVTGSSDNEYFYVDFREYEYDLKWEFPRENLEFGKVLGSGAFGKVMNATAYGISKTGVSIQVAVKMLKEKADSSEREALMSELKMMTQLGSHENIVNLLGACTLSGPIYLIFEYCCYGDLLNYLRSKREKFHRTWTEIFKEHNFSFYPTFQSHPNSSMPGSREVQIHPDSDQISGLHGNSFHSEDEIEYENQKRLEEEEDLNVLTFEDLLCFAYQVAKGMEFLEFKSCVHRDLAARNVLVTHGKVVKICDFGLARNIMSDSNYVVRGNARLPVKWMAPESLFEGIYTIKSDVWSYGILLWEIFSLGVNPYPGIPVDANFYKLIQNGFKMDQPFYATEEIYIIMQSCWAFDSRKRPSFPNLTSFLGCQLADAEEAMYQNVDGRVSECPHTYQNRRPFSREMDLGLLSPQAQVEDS
# Excerpt: as §1, §2
# [1] = system: Raw264.7 (murine macrophage-like cells); experiment: sulforhodamine B (SRB) cytotoxicity assay; settings: Mus musculus, RAW264.7, 144 h; 25 μM highest concentration, diluted 1:5; 6 days; read-out: IC50 Measured Against Raw264.7 Cell Line
# [2] = system: U266B1 (multiple myeloma) cell line; experiment: sulforhodamine B (SRB) cytotoxicity assay; settings: 72 h, 100 μM highest concentration, diluted 1:5, 3 day incubation, read-out: IC50 Measured Against U266B1 Cell Line
# Procedure: (§3) The cytotoxic activity of compounds listed in Table 5 was determined with a sulforhodamine B (SRB) assay on panel of cell lines, including MdaMb231 (breast cancer), MV4-11 (leukemia), PC-3 (prostate cancer), U266B1 (multiple myeloma), C7 macrophages, and Raw264.7 (murine macrophage-like cells).
# (§4) Cells growing in relevant media were seeded in a 96 well plate and left to adhere overnight. Cells were plated at appropriate cell densities: • MV4-11: 20.000 cells/well • Mda-Mb231: 6000 cells/well • C7: 10.000 cells/well • Raw264.7: 2000 cells/well • PC-3: 6000 cells/well • U266B1: 40.000 cells/well.
# (§5) Cells were incubated before the compounds were added the next day to a top concentration of 100 μM and serially diluted 1 in 5 across the plate. After a 3 day incubation period (6 days for C7 and Raw264.7) cells were fixed with trichloroacetic acid (TCA) to end concentration of 10% for adherent cells and 16% end concentration for suspension cells for 1 hr at 4° C. before washing. Cells were stained with 0.4% sulforhodamine-B dye (SRB) in 1% acetic acid for 30 minutes and washed in 1% acetic acid. To solubilize the dye 100 μl 10 mM Tris, pH 10.5 was added and the absorbance was read at 564 nm. IC50 values were generated using the SoftMAX Pro™ software. The data is presented below in Tables 6 through 11.
# [3] = system: PC-3 (prostate cancer) cell line; experiment: sulforhodamine B (SRB) cytotoxicity assay; settings: Homo sapiens, PC-3, 72 h; 100 μM highest concentration, diluted 1:5; 3 day incubation; read-out: IC50 Measured Against PC-3 Cell Line
# Procedure: as §3, §4, §5
# C7 macrophages = experiment: sulforhodamine B (SRB) cytotoxicity assay; settings: Macrophage, 144 h; 5 μM highest concentration, diluted 1:4; 6 day assay; read-out: IC50 Measured Against C7 Cell Line (6 day assay)
# Procedure: as §3, §4, §5
EC50 (MV-4-11),EC50 (BaF3-D835N),Structure (SMILES),IC50 [1],IC50 [2],IC50 [3],IC50 (C7 macrophages)
184 nM,316 nM,CN(C)CCCCCNc1ccc2ncn3c4ccc5[nH]ncc5c4c(=O)c1c23 [(III)],–,–,–,–
–,–,O=c1c2c(NCCCN3CCOCC3)ccc3ncn(c4ccc5[nH]ncc5c14)c32 [(X)],2.7 nM,7060 nM,17300 nM,–
–,–,CN(C)CCNc1ccc2ncn3c4ccc5[nH]ncc5c4c(=O)c1c23 [(XII)],–,6110 nM,–,–
–,–,CC(CCN1CCOCC1)Nc1ccc2ncn3c4ccc5[nH]ncc5c4c(=O)c1c23 (stereo not drawn) [(XVI)],25.7 nM,14500 nM,8920 nM,–
–,–,CN1CCN(CCCNc2ccc3ncn4c5ccc6[nH]ncc6c5c(=O)c2c34)CC1 [(XVII)],2.6 nM,–,9650 nM,360 nM
12 nM,12 nM,CN(C)CCCNc1ccc2ncn3c4ccc5[nH]ncc5c4c(=O)c1c23 [Compound (IV)],–,6940 nM,2970 nM,–
–,–,CCN(CC)CCCNc1ccc2ncn3c4ccc5[nH]ncc5c4c(=O)c1c23 [Compound (XV)],–,–,32800 nM,13 nM

Structure (SMILES),EC50 (MV-4-11),EC50 (BaF3-D835N),IC50 [1],IC50 [2],IC50 [3],IC50 (C7 macrophages)
"CCN(CC)CCNc1ccc2ncn3c4ccc(O)cc4c(=O)c1c23 [Symadex, 5-(2-(diethylamino)ethylamino)-8-hydroxy-6H-imidazo[4,5,1-de]acridin-6-one, reference compound]",13.1 nM,14.3 nM,–,–,–,15 nM
